Patent US12516056B2, “Compounds for inhibition of janus kinase 1” (MANKIND PHARMA LTD., priority 2019, dated 2026)
Like-named read-outs stand apart in the source and are kept apart here.

Assays:
[1] = system: IFN-γ production in NK 92 cells by IL-12; assay: IFN-γ production in NK 92 cells by IL-12 (ELISA); conditions: NK92, IFN-γ detection from cell supernatants, read-out: Cell based IC50 (μM) NK-92/IL-12*
Protocol: NK 92 cells were cultured in medium without IL-2 for overnight. Next day, 5000 cells per well NK 92 cells were seeded in a 96 well plate. Compounds were added to cells and incubated for 1 hour. Later IL-12, 10 U/ml was added to cells and incubated for overnight. Supernatant was collected from the wells and IFN-7 secretion was measured by using human IFN-7 ELISA kit. Absorbance was measured at 450 nm in BMG FLUOstar. Background signal obtained from cells which were not activated with cytokines, was subtracted from vehicle controls and compound treated wells.

Recombinant JAK2 = molecular target: T1, Recombinant JAK2 (Homo sapiens, UniProt O60674); assay: JAK biochemical assay (LANCE Ultra TR-FRET), JAK2
T1 construct: purchased Carna Biosciences
T1 sequence (O60674 whole entry): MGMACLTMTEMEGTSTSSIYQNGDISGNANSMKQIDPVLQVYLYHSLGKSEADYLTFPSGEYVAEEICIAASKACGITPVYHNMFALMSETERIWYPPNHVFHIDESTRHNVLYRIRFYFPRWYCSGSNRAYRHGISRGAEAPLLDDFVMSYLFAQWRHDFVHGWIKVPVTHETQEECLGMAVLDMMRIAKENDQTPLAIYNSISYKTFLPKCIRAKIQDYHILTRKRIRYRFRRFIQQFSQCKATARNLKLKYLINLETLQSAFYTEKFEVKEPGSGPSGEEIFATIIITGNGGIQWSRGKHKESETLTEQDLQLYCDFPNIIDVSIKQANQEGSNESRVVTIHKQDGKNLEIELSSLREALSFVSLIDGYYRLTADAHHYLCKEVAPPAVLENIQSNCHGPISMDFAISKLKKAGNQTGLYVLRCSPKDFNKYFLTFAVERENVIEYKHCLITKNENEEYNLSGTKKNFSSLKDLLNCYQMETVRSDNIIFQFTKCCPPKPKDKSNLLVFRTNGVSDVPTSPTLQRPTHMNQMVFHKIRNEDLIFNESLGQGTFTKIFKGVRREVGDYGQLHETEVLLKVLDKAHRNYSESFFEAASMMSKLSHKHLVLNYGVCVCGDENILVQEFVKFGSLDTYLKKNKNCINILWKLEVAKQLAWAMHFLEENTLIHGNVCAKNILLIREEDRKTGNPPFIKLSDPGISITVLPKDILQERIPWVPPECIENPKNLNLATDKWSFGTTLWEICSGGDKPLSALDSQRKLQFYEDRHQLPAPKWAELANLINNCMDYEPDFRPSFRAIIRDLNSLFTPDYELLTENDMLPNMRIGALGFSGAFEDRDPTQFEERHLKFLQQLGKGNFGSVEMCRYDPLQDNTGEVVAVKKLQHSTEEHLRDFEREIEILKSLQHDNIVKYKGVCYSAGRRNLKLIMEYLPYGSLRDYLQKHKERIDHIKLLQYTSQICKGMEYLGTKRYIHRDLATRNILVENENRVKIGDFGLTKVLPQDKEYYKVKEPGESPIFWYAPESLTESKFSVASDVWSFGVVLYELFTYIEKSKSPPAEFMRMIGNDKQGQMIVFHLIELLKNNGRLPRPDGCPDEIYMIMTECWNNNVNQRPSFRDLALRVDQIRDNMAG
Method in brief: (§1)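 % inhibition relative to vehicle was derived from TR-FRET signal proportional to ULight-substrate phosphorylation. Reactions used recombinant kinase in HEPES pH 7.5 buffer containing EGTA, MgCl2, DTT and Tween-20.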

Recombinant JAK1 = molecular target: T2, Recombinant JAK1 (Homo sapiens, UniProt P23458); assay: JAK biochemical assay (LANCE Ultra TR-FRET), JAK1
T2 construct: purchased Carna Biosciences
T2 sequence (P23458 whole entry): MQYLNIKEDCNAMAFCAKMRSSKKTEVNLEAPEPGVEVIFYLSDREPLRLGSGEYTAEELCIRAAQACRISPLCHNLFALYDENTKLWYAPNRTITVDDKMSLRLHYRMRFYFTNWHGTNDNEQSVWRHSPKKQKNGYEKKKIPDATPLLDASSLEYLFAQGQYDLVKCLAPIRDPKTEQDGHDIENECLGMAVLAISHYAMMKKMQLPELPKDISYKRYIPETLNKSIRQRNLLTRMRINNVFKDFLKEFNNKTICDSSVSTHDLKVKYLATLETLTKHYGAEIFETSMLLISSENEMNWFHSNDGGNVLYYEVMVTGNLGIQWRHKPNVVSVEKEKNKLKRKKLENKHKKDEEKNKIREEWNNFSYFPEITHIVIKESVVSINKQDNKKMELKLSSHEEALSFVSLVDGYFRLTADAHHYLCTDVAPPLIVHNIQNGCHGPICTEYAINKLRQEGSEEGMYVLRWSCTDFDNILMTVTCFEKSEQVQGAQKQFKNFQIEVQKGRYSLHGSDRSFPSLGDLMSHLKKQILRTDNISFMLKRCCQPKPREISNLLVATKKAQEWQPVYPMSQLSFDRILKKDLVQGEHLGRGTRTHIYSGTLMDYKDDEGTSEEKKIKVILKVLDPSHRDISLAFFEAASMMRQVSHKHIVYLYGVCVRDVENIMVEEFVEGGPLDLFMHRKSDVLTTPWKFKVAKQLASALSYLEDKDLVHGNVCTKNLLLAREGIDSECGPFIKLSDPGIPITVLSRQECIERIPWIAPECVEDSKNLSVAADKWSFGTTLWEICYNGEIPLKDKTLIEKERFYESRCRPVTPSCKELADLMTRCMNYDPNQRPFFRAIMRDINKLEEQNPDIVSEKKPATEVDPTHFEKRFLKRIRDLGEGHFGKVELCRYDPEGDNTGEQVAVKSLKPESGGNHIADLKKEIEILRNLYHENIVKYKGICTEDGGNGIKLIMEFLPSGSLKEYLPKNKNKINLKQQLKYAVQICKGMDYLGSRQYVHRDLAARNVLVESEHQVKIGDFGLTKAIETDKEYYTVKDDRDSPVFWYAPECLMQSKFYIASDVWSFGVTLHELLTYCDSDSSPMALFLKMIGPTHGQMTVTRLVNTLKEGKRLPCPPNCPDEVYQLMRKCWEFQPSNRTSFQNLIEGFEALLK
Method in brief: as §1

[2] = system: STAT3 phosphorylation by IL-6 in TF-1 cells; assay: JAK cellular assay: STAT3 phosphorylation by IL-6 in TF-1 cells (HTRF); format: cell-based; conditions: Homo sapiens, TF-1, TF-1 cells
Method in brief: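 TF-1 cells starved overnight in low-serum OptiMEM, then 120,000/well in RPMI, preincubated with compound 30 min at 37 °C (0.2% DMSO final). Stimulation 20 min with IL-6 30 ng/ml (pSTAT3) or GMCSF 5 ng/ml (pSTAT5); lysate phospho-STAT by HTRF, unstimulated background subtracted.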

[3] = system: collagen induced mouse arthritis model; assay: Mouse model of rheumatoid arthritis (collagen induced arthritis); format: in vivo; conditions: orally dosed, QD for 21 days; reference filgotinib
Text: Rheumatoid arthritis (RA) is an autoimmune disease that can cause joint pain and damage throughout the body. Several cytokines such as IL-6 and IFN-γ activate the Janus kinase/signal transducers and activators of transcription (JAK/STAT) pathway. Inhibition of JAK/STAT pathway is considered as one of the therapeutic options for treatment of rheumatoid arthritis. Rodent models of arthritis can be used to evaluate the therapeutic potential of compounds dosed preventatively or therapeutically. These models include but are not limited to mouse or rat collagen-induced arthritis, rat adjuvant-induced arthritis, and collagen antibody-induced arthritis.
Compounds described herein are tested for JAK/STAT pathway inhibition driven efficacy in collagen induced mouse arthritis model. Compounds were orally dosed, QD for 21 days and at the end of the study, clinical symptoms, body weight and histopathology of ankle and paws were measured. Arthritis score was calculated for the compounds as well as reference standard, filgotinib.

Recombinant TYK2 = molecular target: T3, Recombinant TYK2 (Homo sapiens, UniProt P29597); assay: JAK biochemical assay (LANCE Ultra TR-FRET), TYK2
T3 construct: purchased Carna Biosciences
T3 sequence (P29597 whole entry): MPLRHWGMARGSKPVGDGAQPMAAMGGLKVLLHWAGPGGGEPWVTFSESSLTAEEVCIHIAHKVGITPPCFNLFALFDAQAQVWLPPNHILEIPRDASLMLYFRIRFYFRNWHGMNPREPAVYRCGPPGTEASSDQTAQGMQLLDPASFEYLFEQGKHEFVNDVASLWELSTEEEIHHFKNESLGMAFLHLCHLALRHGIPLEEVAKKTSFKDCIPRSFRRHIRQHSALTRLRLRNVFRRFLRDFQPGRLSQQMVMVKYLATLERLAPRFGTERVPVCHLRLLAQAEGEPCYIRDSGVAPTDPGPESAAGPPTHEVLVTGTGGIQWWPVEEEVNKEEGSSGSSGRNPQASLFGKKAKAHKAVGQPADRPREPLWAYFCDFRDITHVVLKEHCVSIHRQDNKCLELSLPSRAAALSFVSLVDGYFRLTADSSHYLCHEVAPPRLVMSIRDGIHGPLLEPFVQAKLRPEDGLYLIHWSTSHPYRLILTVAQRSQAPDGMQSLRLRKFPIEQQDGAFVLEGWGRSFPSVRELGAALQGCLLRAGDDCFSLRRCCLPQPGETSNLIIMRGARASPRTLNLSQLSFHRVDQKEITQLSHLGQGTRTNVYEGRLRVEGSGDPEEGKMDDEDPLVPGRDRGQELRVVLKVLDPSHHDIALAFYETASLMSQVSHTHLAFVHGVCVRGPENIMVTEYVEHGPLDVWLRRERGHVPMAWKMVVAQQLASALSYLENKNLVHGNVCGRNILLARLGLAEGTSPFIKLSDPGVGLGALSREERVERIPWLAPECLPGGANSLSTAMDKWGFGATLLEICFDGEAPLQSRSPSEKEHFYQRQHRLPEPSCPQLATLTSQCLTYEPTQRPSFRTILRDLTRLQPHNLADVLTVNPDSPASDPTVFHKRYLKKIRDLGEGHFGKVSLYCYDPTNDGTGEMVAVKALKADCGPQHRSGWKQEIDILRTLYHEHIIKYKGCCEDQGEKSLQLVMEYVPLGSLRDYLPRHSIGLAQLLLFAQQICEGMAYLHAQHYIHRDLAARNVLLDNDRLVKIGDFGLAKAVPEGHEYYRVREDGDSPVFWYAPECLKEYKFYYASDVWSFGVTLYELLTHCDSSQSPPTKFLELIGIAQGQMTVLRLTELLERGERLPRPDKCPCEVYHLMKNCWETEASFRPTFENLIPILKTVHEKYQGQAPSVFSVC
Method in brief: as §1

Recombinant JAK3 = molecular target: T4, Recombinant JAK3 (Homo sapiens, UniProt P52333); assay: JAK biochemical assay (LANCE Ultra TR-FRET), JAK3
T4 construct: purchased Carna Biosciences
T4 sequence (P52333 1-1124): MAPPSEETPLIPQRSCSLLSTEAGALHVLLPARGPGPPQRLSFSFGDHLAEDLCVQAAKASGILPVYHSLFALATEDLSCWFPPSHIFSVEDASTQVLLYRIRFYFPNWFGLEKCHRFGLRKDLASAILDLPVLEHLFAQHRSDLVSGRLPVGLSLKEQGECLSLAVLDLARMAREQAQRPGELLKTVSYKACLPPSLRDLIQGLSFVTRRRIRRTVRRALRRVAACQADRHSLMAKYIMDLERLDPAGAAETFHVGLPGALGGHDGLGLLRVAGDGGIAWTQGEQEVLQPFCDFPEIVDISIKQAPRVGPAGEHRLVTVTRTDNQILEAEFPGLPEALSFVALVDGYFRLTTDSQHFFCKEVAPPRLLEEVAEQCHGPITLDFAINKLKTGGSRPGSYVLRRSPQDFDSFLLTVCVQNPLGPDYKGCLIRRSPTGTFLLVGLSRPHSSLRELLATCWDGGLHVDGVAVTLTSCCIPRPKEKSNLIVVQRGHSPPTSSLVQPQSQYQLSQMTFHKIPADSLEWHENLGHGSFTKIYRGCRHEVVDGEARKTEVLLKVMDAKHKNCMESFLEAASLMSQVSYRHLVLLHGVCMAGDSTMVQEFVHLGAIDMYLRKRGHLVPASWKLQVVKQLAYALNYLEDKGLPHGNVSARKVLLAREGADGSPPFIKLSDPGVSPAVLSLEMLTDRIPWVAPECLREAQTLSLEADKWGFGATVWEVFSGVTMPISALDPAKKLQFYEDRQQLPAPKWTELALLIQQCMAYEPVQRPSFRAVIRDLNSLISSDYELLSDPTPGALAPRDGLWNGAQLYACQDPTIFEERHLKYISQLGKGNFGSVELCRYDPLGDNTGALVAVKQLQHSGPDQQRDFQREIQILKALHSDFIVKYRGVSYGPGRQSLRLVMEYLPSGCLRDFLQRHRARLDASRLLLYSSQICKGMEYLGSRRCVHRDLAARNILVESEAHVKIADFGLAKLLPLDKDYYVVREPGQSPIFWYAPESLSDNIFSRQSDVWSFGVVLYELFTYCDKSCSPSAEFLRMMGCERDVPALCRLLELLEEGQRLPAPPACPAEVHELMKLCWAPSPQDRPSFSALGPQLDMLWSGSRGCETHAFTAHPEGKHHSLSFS
Method in brief: as §1

[4] = read-out: Biochemical IC50 (nM) JAK2
[5] = read-out: Biochemical IC50 (nM) JAK1
[6] = recombinant JAK1, TR-FRET, read-out: Biochemical Assay (μM) JAK1
[7] = IL-6 30 ng/ml, pSTAT3 HTRF, read-out: Cell Based Assay (μM) TF-1/IL-6/pSTAT3
[8] = IL-6 stimulation, read-out: Cell based IC50 (μM) TF-1/IL-6
[9] = read-out: Biochemical IC50 (nM) TYK2
[10] = recombinant TYK2, TR-FRET, read-out: Biochemical Assay (μM) TYK2
[11] = read-out: Biochemical IC50 (nM) JAK3

CN1CCC(C(O)(c2ccc(-n3cc(-c4ccnc5[nH]cnc45)cn3)nc2)C(F)(F)F)CC1 (stereo not shown) [Example 1133, 1-(6-(4-(3H-imidazo[4,5-b]pyridin-7-yl)-1H-pyrazol-1-yl)pyridin-3-yl)-2,2,2-trifluoro-1-(1-methylpiperidin-4-yl)ethanol]
IC50 [1]: > 10 µM | IC50 (Recombinant JAK2; [4]): 152 nM | IC50 (Recombinant JAK1; [5]): 8 nM | IC50 (Recombinant JAK1; [6]): < 100 nM | IC50 [2, 7]: 0.6 µM | IC50 [2, 8]: 0.6 µM | efficacy (arthritis score) in collagen induced mouse arthritis model [3]: very good efficacy | IC50 (Recombinant TYK2; [9]): 850 nM | IC50 (Recombinant TYK2; [10]): > 1000 nM | IC50 (Recombinant JAK3; [11]): 100 nM

CC(C)NC(=O)CC[C@@H](c1ccc(-n2cc(-c3ccnc4[nH]cnc34)cn2)nc1)C(F)(F)F [Example 1215, (S)-4-(6-(4-(3H-imidazo[4,5-b]pyridin-7-yl)-1H-pyrazol-1-yl)pyridin-3-yl)-5,5,5-trifluoro-N-isopropylpentanamide]
IC50 [1]: > 10 µM | IC50 (Recombinant JAK2; [4]): 40 nM | IC50 (Recombinant JAK2; recombinant JAK2, TR-FRET, read-out: Biochemical Assay (μM) JAK2): < 100 nM | IC50 (Recombinant JAK1; [5]): 0.5 nM | IC50 (Recombinant JAK1; [6]): < 100 nM | IC50 [2, 7]: 0.32 µM | IC50 [2, 8]: 0.3 µM | efficacy (arthritis score) in collagen induced mouse arthritis model [3]: very good efficacy | IC50 (Recombinant TYK2; [9]): > 100 nM | IC50 (Recombinant TYK2; [10]): > 1000 nM | IC50 (Recombinant JAK3; [11]): 11 nM | IC50 (Recombinant JAK3; recombinant JAK3, TR-FRET, read-out: Biochemical Assay (μM) JAK3): < 100 nM
